Data as given in patent US9150577B2, “Heterocyclic compounds containing an indole core” (Boehringer Ingelheim International GmbH, priority 2009, dated 2015).

Molecular target: Human RSK2 (Homo sapiens (Human), UniProt P51812)
Assay: Human RSK2 assay (Kinase Glo Plus, residual ATP);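 note: recombinant human RSK2 phosphorylating a substrate peptide, 90 min at 28 °C, leftover ATP read by luminescence, RLU scaled between no-kinase background and uninhibited kinase controls, 4-parameter fit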
Assay type: biochemical

Chain of Human RSK2 (P51812 whole entry): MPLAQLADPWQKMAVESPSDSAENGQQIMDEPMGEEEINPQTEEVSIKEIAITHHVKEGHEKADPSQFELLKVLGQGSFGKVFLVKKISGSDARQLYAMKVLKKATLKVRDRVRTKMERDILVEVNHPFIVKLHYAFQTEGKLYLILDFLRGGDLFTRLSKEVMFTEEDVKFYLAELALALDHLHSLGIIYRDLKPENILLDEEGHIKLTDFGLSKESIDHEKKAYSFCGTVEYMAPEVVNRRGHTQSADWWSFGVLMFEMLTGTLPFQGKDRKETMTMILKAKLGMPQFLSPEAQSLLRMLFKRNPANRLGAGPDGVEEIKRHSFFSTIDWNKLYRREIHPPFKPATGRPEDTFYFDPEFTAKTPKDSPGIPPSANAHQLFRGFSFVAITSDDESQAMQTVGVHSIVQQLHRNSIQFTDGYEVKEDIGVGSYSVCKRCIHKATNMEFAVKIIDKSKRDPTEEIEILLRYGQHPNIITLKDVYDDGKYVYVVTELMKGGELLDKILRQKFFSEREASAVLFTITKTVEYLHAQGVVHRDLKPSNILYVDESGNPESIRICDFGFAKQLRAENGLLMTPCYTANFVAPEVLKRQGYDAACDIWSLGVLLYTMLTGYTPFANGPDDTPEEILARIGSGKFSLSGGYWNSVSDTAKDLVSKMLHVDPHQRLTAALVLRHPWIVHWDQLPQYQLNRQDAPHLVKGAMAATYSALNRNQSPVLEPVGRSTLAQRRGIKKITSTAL

Structure (SMILES)	IC50
CC(C)n1ncc2cc(NC(=O)c3ccc4cc5n(c4c3)CCCNC5=O)cnc21 [Example 19, 1-oxo-N-[1-(propan-2-yl)-1H-pyrazolo[3,4-b]pyridin-5-yl]-2,3,4,5-tetrahydro-1H-[1,4]diazepino[1,2-a]indole-8-carboxamide]	53 nM
Cn1ncc2cc(NC(=O)c3ccc4cc5n(c4c3)CCCNC5=O)cnc21 [Example 20, N-(1-methyl-1H-pyrazolo[3,4-b]pyridin-5-yl)-1-oxo-2,3,4,5-tetrahydro-1H-[1,4]diazepino[1,2-a]indole-8-carboxamide]	87 nM
CC1CNC(=O)c2cc3ccc(C(=O)Nc4cnn(C)c4)cc3n21 (centres unmarked) [Example 22, 4-methyl-N-(1-methyl-1H-pyrazol-4-yl)-1-oxo-1,2,3,4-tetrahydropyrazino[1,2-a]indole-7-carboxamide]	5.1 nM
Cn1cc(NC(=O)c2ccc3cc4n(c3c2)CC2(CCC2)CNC4=O)cn1 [Example 24, N-(1-methyl-1H-pyrazol-4-yl)-1′-oxo-2′,3′-dihydro-1′H-spiro[cyclobutane-1,4′-[1,4]diazepino[1,2-a]indole]-8′-carboxamide]	320 nM
CC(C)n1cc(NC(=O)c2ccc3cc4n(c3c2)CCCNC4=O)cn1 [Example 25, 1-oxo-N-[1-(propan-2-yl)-1H-pyrazol-4-yl]-2,3,4,5-tetrahydro-1H-[1,4]diazepino[1,2-a]indole-8-carboxamide]	14 nM
O=C(Nc1cnn(C2CCOC2)c1)c1ccc2cc3n(c2c1)CCCNC3=O (centres unmarked) [Example 26, 1-oxo-N-[1-(tetrahydrofuran-3-yl)-1H-pyrazol-4-yl]-2,3,4,5-tetrahydro-1H-[1,4]diazepino[1,2-a]indole-8-carboxamide]	27 nM
O=C(Nc1cnn(C2CCOCC2)c1)c1ccc2cc3n(c2c1)CCCNC3=O [Example 27, 1-oxo-N-[1-(tetrahydro-2H-pyran-4-yl)-1H-pyrazol-4-yl]-2,3,4,5-tetrahydro-1H-[1,4]diazepino[1,2-a]indole-8-carboxamide]	46 nM
Cc1cc(C)cc(Cn2cc(NC(=O)c3ccc4cc5n(c4c3)CCCNC5=O)cn2)c1 [Example 28, N-[1-(3,5-dimethylbenzyl)-1H-pyrazol-4-yl]-1-oxo-2,3,4,5-tetrahydro-1H-[1,4]diazepino[1,2-a]indole-8-carboxamide]	1.9 nM
O=C(Nc1cnn(Cc2ccccc2)c1)c1ccc2cc3n(c2c1)CC1(CCOCC1)CNC3=O [Example 31, N-(1-benzyl-1H-pyrazol-4-yl)-1-oxo-2,2′,3,3′,5′,6′-hexahydro-1H-spiro[1,4-diazepino[1,2-a]indole-4,4′-pyran]-8-carboxamide]	900 nM
O=C(Nc1cnn(Cc2ccccc2)c1)c1ccc2cc3n(c2c1)CCCNC3=O [Example 32, N-(1-benzyl-1H-pyrazol-4-yl)-1-oxo-2,3,4,5-tetrahydro-1H-[1,4]diazepino[1,2-a]indole-8-carboxamide]	4 nM
Cc1ccccc1Cn1cc(NC(=O)c2ccc3cc4n(c3c2)CCCNC4=O)cn1 [Example 34, N-[1-(2-methylbenzyl)-1H-pyrazol-4-yl]-1-oxo-2,3,4,5-tetrahydro-1H-[1,4]diazepino[1,2-a]indole-8-carboxamide]	7.9 nM
CC(C)CCn1cc(NC(=O)c2ccc3cc4n(c3c2)CCCNC4=O)cn1 [Example 35, N-[1-(3-methylbutyl)-1H-pyrazol-4-yl]-1-oxo-2,3,4,5-tetrahydro-1H-[1,4]diazepino[1,2-a]indole-8-carboxamide]	11 nM
CN(C)CCCn1cc(NC(=O)c2ccc3cc4n(c3c2)CCCNC4=O)cn1 [Example 36, N-{1-[3-(dimethylamino)propyl]-1H-pyrazol-4-yl}-1-oxo-2,3,4,5-tetrahydro-1H-[1,4]diazepino[1,2-a]indole-8-carboxamide]	84 nM
O=C(Nc1cnn(CCN2CCOCC2)c1)c1ccc2cc3n(c2c1)CCCNC3=O [Example 37, N-{1-[2-(morpholin-4-yl)ethyl]-1H-pyrazol-4-yl}-1-oxo-2,3,4,5-tetrahydro-1H-[1,4]diazepino[1,2-a]indole-8-carboxamide]	84 nM
COCCn1cc(NC(=O)c2ccc3cc4n(c3c2)CCCNC4=O)cn1 [Example 38, N-[1-(2-methoxyethyl)-1H-pyrazol-4-yl]-1-oxo-2,3,4,5-tetrahydro-1H-[1,4]diazepino[1,2-a]indole-8-carboxamide]	19 nM
Cc1ccc2[nH]c(NC(=O)c3ccc4cc5n(c4c3)CCCNC5=O)nc2c1 [Example 39, N-(5-methyl-1H-benzimidazol-2-yl)-1-oxo-2,3,4,5-tetrahydro-1H-[1,4]diazepino[1,2-a]indole-8-carboxamide]	3 nM
CCn1c(NC(=O)c2ccc3cc4n(c3c2)CCCNC4=O)nc2cc(C)ccc21 [Example 40, N-(1-ethyl-5-methyl-1H-benzimidazol-2-yl)-1-oxo-2,3,4,5-tetrahydro-1H-[1,4]diazepino[1,2-a]indole-8-carboxamide]	4.8 nM
N#Cc1ccc2[nH]c(NC(=O)c3ccc4cc5n(c4c3)CCCNC5=O)nc2c1 [Example 41, N-(5-cyano-1H-benzimidazol-2-yl)-1-oxo-2,3,4,5-tetrahydro-1H-[1,4]diazepino[1,2-a]indole-8-carboxamide]	4.9 nM

Structure (SMILES)	IC50
CC(C)c1ccc2[nH]c(NC(=O)c3ccc4cc5n(c4c3)CCCNC5=O)nc2c1 [Example 42, 1-oxo-N-[5-(propan-2-yl)-1H-benzimidazol-2-yl]-2,3,4,5-tetrahydro-1H-[1,4]diazepino[1,2-a]indole-8-carboxamide]	6.2 nM
O=C(Nc1nc2cc(C(F)(F)F)ccc2[nH]1)c1ccc2cc3n(c2c1)CCCNC3=O [Example 43, 1-oxo-N-[5-(trifluoromethyl)-1H-benzimidazol-2-yl]-2,3,4,5-tetrahydro-1H-[1,4]diazepino[1,2-a]indole-8-carboxamide]	24 nM
O=C(Nc1nc2cc(Cl)cc(CN3CCOCC3)c2[nH]1)c1ccc2cc3n(c2c1)CCCNC3=O [Example 46, N-[5-chloro-7-(morpholin-4-ylmethyl)-1H-benzimidazol-2-yl]-1-oxo-2,3,4,5-tetrahydro-1H-[1,4]diazepino[1,2-a]indole-8-carboxamide]	8.7 nM
O=C(Nc1nc2cc(Cl)ccc2[nH]1)c1ccc2cc3n(c2c1)CCCNC3=O [Example 47, N-(5-chloro-1H-benzimidazol-2-yl)-1-oxo-2,3,4,5-tetrahydro-1H-[1,4]diazepino[1,2-a]indole-8-carboxamide]	8 nM
Cn1c(NC(=O)c2ccc3cc4n(c3c2)CCCNC4=O)nc2cc(Cl)ccc21 [Example 49, N-(5-chloro-1-methyl-1H-benzimidazol-2-yl)-1-oxo-2,3,4,5-tetrahydro-1H-[1,4]diazepino[1,2-a]indole-8-carboxamide]	26 nM
CN(C)CCCn1c(NC(=O)c2ccc3cc4n(c3c2)CC(C)(C)CNC4=O)nc2cc(Cl)ccc21 [Example 50, N-{5-chloro-1-[3-(dimethylamino)propyl]-1H-benzimidazol-2-yl}-4,4-dimethyl-1-oxo-2,3,4,5-tetrahydro-1H-[1,4]diazepino[1,2-a]indole-8-carboxamide]	34 nM
O=C(Nc1nc2cc(F)ccc2[nH]1)c1ccc2cc3n(c2c1)CCCNC3=O [Example 51, N-(5-fluoro-1H-benzimidazol-2-yl)-1-oxo-2,3,4,5-tetrahydro-1H-[1,4]diazepino[1,2-a]indole-8-carboxamide]	5.2 nM
Cn1c(NC(=O)c2ccc3cc4n(c3c2)CCCNC4=O)nc2ccc(Cl)cc21 [Example 52, N-(6-chloro-1-methyl-1H-benzimidazol-2-yl)-1-oxo-2,3,4,5-tetrahydro-1H-[1,4]diazepino[1,2-a]indole-8-carboxamide]	170 nM
O=C(Nc1nc2ccccc2[nH]1)c1ccc2cc3n(c2c1)CCCNC3=O [Example 55, N-(1H-benzimidazol-2-yl)-1-oxo-2,3,4,5-tetrahydro-1H-[1,4]diazepino[1,2-a]indole-8-carboxamide]	4.4 nM
CC1(C)CNC(=O)c2cc3ccc(C(=O)Nc4nc5ccccc5[nH]4)cc3n21 [Example 56, N-(1H-benzimidazol-2-yl)-4,4-dimethyl-1-oxo-1,2,3,4-tetrahydropyrazino[1,2-a]indole-7-carboxamide]	0.89 nM
CC1CNC(=O)c2cc3ccc(C(=O)Nc4nc5ccccc5[nH]4)cc3n21 (centres unmarked) [Example 57, N-(1H-benzimidazol-2-yl)-4-methyl-1-oxo-1,2,3,4-tetrahydropyrazino[1,2-a]indole-7-carboxamide]	0.59 nM
CC1CCNC(=O)c2cc3ccc(C(=O)Nc4nc5ccccc5[nH]4)cc3n21 (centres unmarked) [Example 58, N-(1H-benzimidazol-2-yl)-5-methyl-1-oxo-2,3,4,5-tetrahydro-1H-[1,4]diazepino[1,2-a]indole-8-carboxamide]	0.77 nM
Cn1c(NC(=O)c2ccc3cc4n(c3c2)C(C)(C)CNC4=O)nc2ccccc21 [Example 59, 4,4-dimethyl-N-(1-methyl-1H-benzimidazol-2-yl)-1-oxo-1,2,3,4-tetrahydropyrazino[1,2-a]indole-7-carboxamide]	0.62 nM
Cn1c(NC(=O)c2ccc3cc4n(c3c2)CC(C)(C)CNC4=O)nc2ccccc21 [Example 60, 4,4-dimethyl-N-(1-methyl-1H-benzimidazol-2-yl)-1-oxo-2,3,4,5-tetrahydro-1H-[1,4]diazepino[1,2-a]indole-8-carboxamide]	20 nM
CC1CNC(=O)c2cc3ccc(C(=O)Nc4nc5ccccc5n4C)cc3n21 (centres unmarked) [Example 61, 4-methyl-N-(1-methyl-1H-benzimidazol-2-yl)-1-oxo-1,2,3,4-tetrahydropyrazino[1,2-a]indole-7-carboxamide]	2.2 nM
CC1CNC(=O)c2cc3ccc(C(=O)Nc4nc5ccccc5n4C)cc3n2C1 (centres unmarked) [Example 62, 4-methyl-N-(1-methyl-1H-benzimidazol-2-yl)-1-oxo-2,3,4,5-tetrahydro-1H-[1,4]diazepino[1,2-a]indole-8-carboxamide]	8.2 nM
CC(C)(C)n1c(NC(=O)c2ccc3cc4n(c3c2)CCCNC4=O)nc2ccccc21 [Example 65, N-(1-tert-butyl-1H-benzimidazol-2-yl)-1-oxo-2,3,4,5-tetrahydro-1H-[1,4]diazepino[1,2-a]indole-8-carboxamide]	19 nM
